The text below walks through data of US20170281758A1, “CAL[…] DRUG […] AN A[…] TO A SUGAR MOIETY ON CALICHEAMICIN” (Sorrento Therapeutics, Inc., priority 2016, published 2017).

pEC50: −log10 of the molar value.

One experiment relates to BT474 (Her2+++). Particulars: anti-HER2 IgG ADC, treatment 5 days, 50% cell growth inhibition. Here is the method: (§1) The antibody used was an anti-HER2 IgG class of antibody. Seven breast cancer cell lines with various level of Her2 expression as indicated with plus or minus signs in the table below were plated in 96 well plate. The ADCs as listed under Drug-Linker ID were serial diluted and added onto cells for treatment for 5 days. At the end of the study, cell proliferation was measured by Promega's CellTitreGlo.

The subject of another experiment is HCC1954 (Her2+++). Particulars: anti-HER2 IgG ADC, treatment 5 days, 50% cell growth inhibition. On the procedure: as §1
The test system of a further experiment is JIMT-1 (Her2+++). The following applies: anti-HER2 IgG ADC, treatment 5 days, 50% cell growth inhibition. Here is the method: as §1
Another experiment concerns MCF-7 (Her2+/−). The following applies: anti-HER2 IgG ADC, treatment 5 days, 50% cell growth inhibition. On the procedure:
as §1

Another experiment concerns SKBR-3 (Her2+++). Particulars: anti-HER2 IgG ADC, treatment 5 days, 50% cell growth inhibition. Here is the method: as §1
Experiment [1] concerns Seven breast cancer cell lines with various level of Her2 expression. Put plainly: Overall assessment of anti-HER2 ADCs over the cell panel (efficacy, toxicity, therapeutic window). It counts as cell-based. Here is the method:
as §1

The next experiment has as its system MDA-453 (Her2++). The following applies: anti-HER2 IgG ADC, treatment 5 days, 50% cell growth inhibition. On the procedure:
as §1

The next experiment deals with MDA468 (Her2−). Particulars: anti-HER2 IgG ADC; MDA468 (Her2−) control cell line; treatment 5 days; 50% cell growth inhibition. On the procedure:
as §1

Regarding `CCN(C(=O)CNC(=O)OCc1ccc(NC(=O)[C@H](CC(N)=O)NC(=O)[C@H](C)NC(=O)[C@H](C)NC(=O)CCC(=O)N2CCC(C(=O)O)CC2)cc1)C1COC(OC2C(O[C@H]3C#C/C=C\C#C[C@]4(O)CC(=O)C(NC(=O)OC)=C3/C4=C\CSSC(C)(C)CC(=O)NCC(O)CO)OC(C)C(NOC3CC(O)C(SC(=O)c4c(C)c(I)c(OC5OC(C)C(O)C(OC)C5O)c(OC)c4OC)C(C)O3)C2O)CC1OC` (stereo partly drawn) [Compound 15], the pEC50 – broadly, the negative decadic logarithm of the EC50, by convention in mol/L – with BT474 (Her2+++) was 8.84; in the experiment on HCC1954 (Her2+++), 10.19; in the experiment on JIMT-1 (Her2+++), 9.77; in the experiment with MCF-7 (Her2+/−), < 7.00; in the experiment with SKBR-3 (Her2+++), 9.77. Besides, the “Assessment of efficacy and toxicity / therapeutic window” value in experiment [1] was “successful candidates with high efficacy and good therapeutic window”.

Consider `CCN(C(=O)CNC(=O)OCc1ccc(NC(=O)[C@H](C)NC(=O)[C@@H](NC(=O)CCCn2nnc(CBr)c2CBr)C(C)C)cc1)C1COC(OC2C(O[C@H]3C#C/C=C\C#C[C@]4(O)CC(=O)C(NC(=O)OC)=C3/C4=C\CSSC(C)(C)CCC(=O)NCCOCCOCCOCCO)OC(C)C(NOC3CC(O)C(SC(=O)c4c(C)c(I)c(OC5OC(C)C(O)C(OC)C5O)c(OC)c4OC)C(C)O3)C2O)CC1OC` (stereo partly drawn) [Compound 30], for which the pEC50 was 8.85 with BT474 (Her2+++); 10.05 in the experiment with JIMT-1 (Her2+++); 9.30 in the experiment with MCF-7 (Her2+/−); 10.30 in the experiment with MDA-453 (Her2++); 7.62 in the experiment with MDA468 (Her2−); 10.19 in the experiment on SKBR-3 (Her2+++). Besides, the “Assessment of efficacy and toxicity / therapeutic window” value in experiment [1] is “successful candidates with high efficacy and good therapeutic window”.

With `CCN(C(=O)CNC(=O)OCc1ccc(NC(=O)[C@H](C)NC(=O)[C@@H](NC(=O)CCCC(=O)O)C(C)C)cc1)C1COC(OC2C(O[C@H]3C#C/C=C\C#C[C@]4(O)CC(=O)C(NC(=O)OC)=C3/C4=C\CSSC(C)CCC(=O)NCC(O)CO)OC(C)C(NOC3CC(O)C(SC(=O)c4c(C)c(I)c(OC5OC(C)C(O)C(OC)C5O)c(OC)c4OC)C(C)O3)C2O)CC1OC` (stereo partly drawn) [Compound 37], the pEC50 with BT474 (Her2+++) was 8.82; in the experiment on JIMT-1 (Her2+++), 9.85; with MCF-7 (Her2+/−), 9.48; in the experiment on MDA-453 (Her2++) it was 9.48; in the experiment on MDA468 (Her2−) it was 7.77; in the experiment with SKBR-3 (Her2+++), 9.63. In experiment [1], the “Assessment of efficacy and toxicity / therapeutic window” value is “successful candidates with high efficacy and good therapeutic window”.

With `CCN(C(=O)CNC(=O)OCc1ccc(NC(=O)[C@H](C)NC(=O)[C@@H](NC(=O)CCCC(=O)O)C(C)C)cc1)C1COC(OC2C(O[C@H]3C#C/C=C\C#C[C@]4(O)CC(=O)C(NC(=O)OC)=C3/C4=C\CSSC(C)CCC(=O)NC3C(O)OC(CO)C(O)C3O)OC(C)C(NOC3CC(O)C(SC(=O)c4c(C)c(I)c(OC5OC(C)C(O)C(OC)C5O)c(OC)c4OC)C(C)O3)C2O)CC1OC` (stereo partly drawn) [Compound 40], the pEC50 is 9.05 in the experiment with BT474 (Her2+++); 9.46 in the experiment with JIMT-1 (Her2+++); 7.05 with MCF-7 (Her2+/−); 10.00 in the experiment on MDA-453 (Her2++); 7.38 in the experiment with MDA468 (Her2−); 9.18 in the experiment on SKBR-3 (Her2+++). Moreover, the “Assessment of efficacy and toxicity / therapeutic window” value in experiment [1] was “successful candidates with high efficacy and good therapeutic window”.
